From patent publication US11873298B2, “Compounds and uses thereof” (JANSSEN PHARMACEUTICA NV, priority 2017, dated 2024)

What was measured:
Format in all cases: cell-based
SCD1 = target: T1, SCD1 (Homo sapiens, UniProt O00767); assay: Growth inhibition of humanized yeast strain expressing SCD1 as sole desaturase; settings: humanized yeast strain expressing SCD1
T1 construct: host or cells: S. cerevisiae ole1Δ strain (W303 pdr1Δ pdr3Δ background), plasmid pRS316 with TDH3 promoter and CYC1 terminator
T1 sequence (O00767 1-359): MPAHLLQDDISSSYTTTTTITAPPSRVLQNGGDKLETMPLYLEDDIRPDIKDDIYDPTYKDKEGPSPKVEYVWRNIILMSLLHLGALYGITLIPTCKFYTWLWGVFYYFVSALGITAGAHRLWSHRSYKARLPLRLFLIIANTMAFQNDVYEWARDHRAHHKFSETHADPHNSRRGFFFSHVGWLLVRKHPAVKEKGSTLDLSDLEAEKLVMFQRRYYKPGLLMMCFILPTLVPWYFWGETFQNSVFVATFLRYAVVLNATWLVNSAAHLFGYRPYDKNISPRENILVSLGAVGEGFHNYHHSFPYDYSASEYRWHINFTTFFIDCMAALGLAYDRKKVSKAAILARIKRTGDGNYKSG
How it was run: (§1)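 Plasmid-complemented ole1Δ yeast, drug-pump deleted (pdr1Δ pdr3Δ), depend solely on the introduced Ole1, SCD1 or SCD5 desaturase. Compounds are added from DMSO to cells in uracil-free galactose medium, 2× density 0.02, and OD600 is read after 24 h or 40 h respectively.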

Ole1 = target: T2, Ole1 (Saccharomyces cerevisiae, UniProt P21147); assay: Growth inhibition of yeast strain expressing Ole1 as sole desaturase; settings: yeast strain expressing Ole1 as sole desaturase
T2 construct: expressed in transfected cells; host or cells: S. cerevisiae ole1Δ strain (W303 pdr1Δ pdr3Δ background), plasmid pRS316 with TDH3 promoter and CYC1 terminator
T2 sequence (P21147 1-510): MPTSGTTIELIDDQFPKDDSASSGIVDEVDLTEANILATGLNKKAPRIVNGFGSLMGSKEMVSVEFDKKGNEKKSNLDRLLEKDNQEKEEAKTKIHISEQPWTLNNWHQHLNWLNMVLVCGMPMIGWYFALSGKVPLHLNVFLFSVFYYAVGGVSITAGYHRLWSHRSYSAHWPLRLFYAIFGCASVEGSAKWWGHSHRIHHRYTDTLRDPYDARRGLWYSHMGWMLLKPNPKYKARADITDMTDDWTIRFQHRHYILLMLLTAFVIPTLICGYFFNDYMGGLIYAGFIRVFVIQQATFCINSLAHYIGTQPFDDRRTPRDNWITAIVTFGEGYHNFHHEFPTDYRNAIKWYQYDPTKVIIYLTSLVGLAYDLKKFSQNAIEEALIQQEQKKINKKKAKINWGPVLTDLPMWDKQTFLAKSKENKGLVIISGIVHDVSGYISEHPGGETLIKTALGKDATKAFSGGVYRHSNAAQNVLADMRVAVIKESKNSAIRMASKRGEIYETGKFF
Procedure: Strain oleΔ (yeast ole1 deletion mutant) was constructed by deleting OLE1 with NAT-MX6 in BY4741, amplifying the deletion cassette from the genomic DNA of the resulting strain with primers flanking the ORF by 1000 bp upstream and downstream, transforming the resulting deletion cassette into W303 pdr1Δ pdr3Δ, and plating transformants on YPD media containing G418 (200 μg/mL) and nourseothricin ([…]) with 0.01% TWEEN®-20 and 0.5 mM oleic and palmitoleic acids.
The coding sequence of yeast OLE1 was also cloned into this plasmid). These clones were then transformed into the ole1Δ strain and plated on CSM-Ura media (CSM lacking uracil) with 2% glucose (w/v) and independent colonies were isolated and amplified.
All compound profiling experiments were performed using the same basic protocol. Different genetic backgrounds (e.g., gene deletions) or conditions (e.g., addition of oleic and palmitoleic acid) were replaced as indicated below.
Yeast were cultured using standard techniques in complete synthetic media (CSM) and yeast nitrogen base supplemented with 2% (w/v) carbon source (glucose, raffinose, or galactose) to regulate the expression of the toxic disease protein. An initial starter culture was inoculated in 3 mL CSM-Glucose media and incubated overnight in a 30° C. shaker incubator (225 rpm). Saturated morning cultures were then diluted 1:20 in fresh CSM-Raffinose media and grown for 6 h to an OD600 (optical density) of ˜0.4-0.8 at 30° C. with shaking.
Compound administration was performed in two separate steps. First, 15 μL of CSM-Galactose (induces expression of toxic protein) was dispensed into clear 384 well assay plates using a MULTIDROP™ Combi reagent dispenser. […] The cultures described above were then diluted to a 2× concentration (0.03 and 0.08 for alpha-synuclein and ApoE, final ODsoo of 0.015 and 0.04) in CSM-Galactose. For wild-type and Ole1/SCD1/SCD5 plasmid-containing strains, the 2× cell density was 0.02. […] For 96-well assays (FIGS. 1A and 1B), compound dilutions in DMSO were generated in 96 well plates and 1 μL was manually pipetted into 96 well clear bottom assay plates.
For experiments using a plasmid-borne copy of Ole1, SCD1, or SCD5 (FIGS. 3B, 6, and 7), media lacking uracil (SX-Ura, where X is glucose, raffinose, or galactose), was used for all steps of the compound profiling protocol to ensure its maintenance throughout the assay.
After yeast delivery, assay plates were incubated under humidified conditions at 30° C. for 24 to 40 h. ApoE4 rescue experiments were stopped at 24 h, aSyn experiments at 40 h, Ole1 at 24 h, and SCD1/SCD5 at 40 h. The growth of yeast was monitored by reading the ODsoo of each well using a microplate reader (Perkin Elmer EnVision™).

SCD5 = target: T3, SCD5 (Homo sapiens, UniProt Q86SK9); assay: Growth inhibition of humanized yeast strain expressing SCD5 as sole desaturase; settings: humanized yeast strain expressing SCD5
T3 construct: host or cells: S. cerevisiae ole1Δ strain (W303 pdr1Δ pdr3Δ background), plasmid pRS316 with TDH3 promoter and CYC1 terminator
T3 sequence (Q86SK9 1-330): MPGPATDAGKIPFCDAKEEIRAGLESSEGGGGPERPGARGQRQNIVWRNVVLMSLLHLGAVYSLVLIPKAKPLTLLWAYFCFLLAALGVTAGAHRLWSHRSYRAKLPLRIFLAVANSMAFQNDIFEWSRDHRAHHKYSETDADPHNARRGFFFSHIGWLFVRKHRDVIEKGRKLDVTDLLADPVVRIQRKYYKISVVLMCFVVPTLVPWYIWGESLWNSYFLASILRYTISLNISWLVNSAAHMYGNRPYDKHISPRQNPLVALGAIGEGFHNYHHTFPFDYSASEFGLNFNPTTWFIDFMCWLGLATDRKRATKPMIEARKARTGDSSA
How it was run: as §1

Structure (SMILES)	IC50 (SCD1)	SCD1 % Max Inhibition (SCD1)	IC50 (Ole1)	OLE1 % Max Inhibition (Ole1)	IC50 (SCD5)	SCD5 % Max Inhibition (SCD5)
Cc1nn(C)c2cc(-c3noc(C4CCN(C(=O)[C@@H](CO)NC(=O)c5ccccc5)CC4)n3)ccc12 [Compound 186]	> 45 µM	86.16%	> 45 µM	35.40%	30 µM	73.51%
O=C([C@H]1CC(=O)N(c2ccccc2)C1)N1CCC(c2nc(N3CC4(COC4)C3)no2)CC1 [Compound 316]	≥ 45 µM	69.01%	≥ 45 µM	89.26%		80%
COc1ccc(-c2noc(C3CCN(C(=O)c4cccc(C(C)C)c4)CC3)n2)cc1OC [Compound 167]	> 45 µM	6.11%	38.4 µM	57.28%	> 45 µM	2.38%
O=C(C1CC(=O)N(c2ccccc2)C1)N1CCC(c2nc(N3CC4(COC4)C3)no2)CC1 (stereo not drawn) [Compound 231]	> 45 µM	80.00%	> 45 µM	29.53%	> 45 µM	3.11%
CC(C)(CO)n1ncc2ccc(-c3noc(C4CCN(C(=O)CNC(=O)c5ccccc5)CC4)n3)cc21 [Compound 189]	> 45 µM	88.10%	> 45 µM	98.14%	> 45 µM	68.58%
Cc1nn(C)c2cc(-c3noc(C4CCN(C(=O)C5CN(C(=O)c6ccccc6)C5)CC4)n3)ccc12 [Compound 236]	> 45 µM	77.23%	> 45 µM	8.46%	> 45 µM	3.14%
CCOC(=O)C(C)(C)n1cc2ccc(-c3noc(C4CCN(C(=O)CNC(=O)c5ccccc5)CC4)n3)cc2n1 [Compound 194]	> 45 µM	74.07%	> 45 µM	60.71%	> 45 µM	63.24%
Cc1nn(C)c2cc(-c3noc(C4CCN(C(=O)NC(C)(C)C)CC4)n3)ccc12 [Compound 282]		90.54%	> 45 µM	110.18%	28.9 µM	56.23%
CC1(C)CC(=O)c2c(O)cc(OCC(=O)NCCc3nc(-c4ccccc4)no3)cc2O1 [Compound 487]		83.76%	> 45 µM	103.20%	40.2 µM	70.73%
CCN(Cc1nc(-c2ccc(OC)c(OC)c2)no1)C(=O)Cc1ccccc1 [Compound 492]		83.92%	> 45 µM	106.45%	> 45 µM	75.64%
Cc1nn(C)c2cc(-c3noc(C4CCN(C(=O)CNC(=O)c5cccc(C#N)c5)CC4)n3)ccc12 [Compound 322]		73.6%	> 45 µM	9.0%	> 45 µM	29.8%
Cc1nn(C)c2cc(-c3noc(C4CCN(C(=O)C5CC(=O)N(CC6CC6)C5)CC4)n3)ccc12 (stereo not drawn) [Compound 245]	> 45 µM	77.70%	> 45 µM	95.26%	> 45 µM	66.96%
CCN1C(=O)COc2ccc(-c3nc(C4(c5ccc(OC)cc5)CC4)no3)cc21 [Compound 158]	> 45 µM	78.34%	> 45 µM	89.93%	> 45 µM	91.96%
Cc1nn(C)c2cc(-c3noc(N4CCC(C(=O)N5CCO[C@H](c6ccccc6)C5)CC4)n3)ccc12 [Compound 211]	> 45 µM	39.99%	> 45 µM	2.65%	> 45 µM	6.95%
Cc1nn(C)c2cc(-c3noc(C4(C)CCN(C(=O)CNC(=O)c5ccccc5)CC4)n3)ccc12 [Compound 227]	38.3 µM	63.76%	> 45 µM	1.24%	> 45 µM	6.17%
CNC(=O)c1ccc(-c2noc(C3CCN(C(=O)[C@H]4CC(=O)N(c5ccccc5)C4)CC3)n2)cn1 [Compound 252]		80.73%	> 45 µM	27.85%	> 45 µM	39.69%
